Legend:
[1] = CNS safety pharmacology study in rats; format: in vivo, rat; settings: oral administration
[2] = Cardiovascular safety pharmacology in dogs; format: in vivo, dog; settings: oral administration

COc1cc2c(cc1OC)CN(CCc1ccc(-n3nnc(-c4cc(OC)c(OC)cc4NC(=O)c4cc(=O)c5ccccc5o4)n3)cc1)CC2 [Compound A]
Effect on body temperature [1]: absence
Effect on PR and QRS intervals [2]: absence
